For this experiment, the target named is human IDO1 (Homo sapiens, UniProt P14902). The experiment can be described thus: Assessment of human IDO-1 inhibitory activity in HEK cells (human IDO1/HEK293 cells, kynurenine read-out with Ehrlich reagent, absorbance 490 nm). It counts as cell-based. On the set-up: expressed in transfected cells. As to conditions: HEK Human IDO-1 cellular assay. The protocol: Exemplary compounds were tested for inhibition of IDO activity.
Assessment of Human IDO-1 Inhibitory Activity in HEK Cells
HEK293 cells were transfected with a pCDNA-based mammalian expression vector harboring human IDO1 cDNA (NM 002164.2) by electroporation. They were cultured in medium (DMEM with 10% FBS) containing 1 mg/ml G418 for two weeks. Clones of HEK293 cells that stably expressed human IDO1 protein were selected and expanded for IDO inhibition assay.
The human IDO1/HEK293 cells were seeded at 10,000 cells per 50 μL per well with RPMI/phenol red free media contains 10% FBS in a 384-well black wall clear bottom tissue culture plate (Matrix Technologies LLC) 100 nL of certain concentration of compound was then added to each well using ECHO liquid handling systems. The cells were incubated for 20 hours in 37° C. incubator with 5% CO2.
The compound treatments were stopped by adding trichloroacetic acid (Sigma-Aldrich) to a final concentration at 0.2%. The cell plate was further incubated at 50° C. for 30 minute. The equal volume supernatant (20 μL) and 0.2% (w/v) Ehrlich reagent (4-dimethylaminobenzaldehyde, Sigma-Aldrich) in glacial acetic acid were mixed in a new clear bottom 384-well plate. This plate was then incubated at room temperature for 30 minute. The absorbance at 490 nm was measured on Envision plate reader.
Compound IC50 values were calculated using the counts of 500 nM of a reference standard treatment as one hundred percent inhibition, and counts of no compound but DMSO treatment as zero percent inhibition.

By IC50 is commonly meant the midpoint of a concentration-inhibition curve.

human IDO1, sequence (P14902 whole entry): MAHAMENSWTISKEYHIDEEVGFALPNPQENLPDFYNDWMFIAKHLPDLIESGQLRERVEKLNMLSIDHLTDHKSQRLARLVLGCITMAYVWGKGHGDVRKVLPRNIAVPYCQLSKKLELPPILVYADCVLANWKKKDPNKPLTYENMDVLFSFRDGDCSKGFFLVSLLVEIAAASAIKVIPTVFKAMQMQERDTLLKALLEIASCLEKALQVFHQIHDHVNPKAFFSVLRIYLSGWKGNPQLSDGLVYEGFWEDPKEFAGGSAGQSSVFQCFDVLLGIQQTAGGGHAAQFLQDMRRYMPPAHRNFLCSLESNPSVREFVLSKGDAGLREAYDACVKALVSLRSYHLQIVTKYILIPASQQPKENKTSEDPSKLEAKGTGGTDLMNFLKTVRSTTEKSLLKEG

With `CC(C)CN(c1ccc(C(COCC2CC2(F)F)CC(=O)O)cc1NC(=O)Nc1ccc(Cl)cc1F)C1CCCCC1` (racemic) [Example 1002, (+/−)-3-(3-(3-(4-Chloro-2-fluorophenyl)ureido)-4-(cyclohexyl(isobutyl)amino)phenyl)-4-((2,2-difluorocyclopropyl)methoxy)butanoic acid], the half-maximal inhibitory concentration (IC50) is under 50 nM.

Turning to `COCCC(CC(=O)O)c1ccc(N(CC(C)C)C2CCCCC2)c(NC(=O)Nc2ccc(C)cc2)c1` (racemic) [Example 1003, (+/−)-3-(4-(Cyclohexyl(isobutyl)amino)-3-(3-(p-tolyl)ureido)phenyl)-5-methoxypentanoic acid], the IC50 is under 5 nM.

On to `COCC(CC(=O)OC)c1ccc(N(CC(C)C)C2CCC(OC)CC2)c(NC(=O)Nc2ccc(C)cc2)c1` (racemic) [Example 1005, (+/−)-Methyl 3-(4-(isobutyl((1R,4R)-4-methoxycyclohexyl)amino)-3-(3-(p-tolyl)ureido)phenyl)-4-methoxybutanoate], for which the concentration for half-maximal inhibition (IC50) was over 50 nM.

As for `CC(C)CN(CC(C)C)c1ccc(C(CC(=O)O)c2ccccc2)cc1NC(=O)Nc1ccc(OC(F)(F)F)cc1` (racemic) [Example 1009, (+/−)3-(4-(Diisobutylamino)-3-(3-(4-(trifluoromethoxy)phenyl)ureido)phenyl)-3-phenylpropanoic acid], the 50% inhibitory concentration (IC50) was over 50 nM.

`Cc1ccc(CC(=O)Nc2cc(C(CC(=O)O)C(C)C)ccc2N(CC(C)C)CC(C)C)cc1` (racemic) [Example 1010]: the 50% inhibitory concentration (IC50) is under 5 nM.

For `COC(Cc1ccc(N(CC(C)C)C2CCCCC2)c(NC(=O)Nc2ccc(C#N)cc2F)c1)C(=O)O` (racemic) [Example 1011, 3-(3-(3-(4-Cyano-2-fluorophenyl)ureido)-4-(cyclohexyl(isobutyl)amino)phenyl)-2-methoxypropanoic acid], the 50% inhibitory concentration (IC50) is under 50 nM.

Turning to `CCOc1ccc(C(=O)Nc2cc(C(CC)CC(=O)O)ccc2N(CC(C)C)C2CCCCC2)cc1` (racemic) [Example 1073, 3-(4-(Cyclohexyl(isobutyl)amino)-3-(4-ethoxybenzamido)phenyl)pentanoic acid], the concentration for half-maximal inhibition (IC50) was over 50 nM.

As for `CCC(CC(=O)O)c1ccc(N(CC(C)C)C2CCCCC2)c(NC(=O)c2ccc(Oc3ccccc3)cc2)c1` (racemic) [Example 1074, 3-(4-(Cyclohexyl(isobutyl)amino)-3-(4-phenoxybenzamido)phenyl)pentanoic acid], the 50% inhibitory concentration (IC50) is over 50 nM.

With `CCC(CC(=O)O)c1ccc(N(CC(C)C)C2CCCCC2)c(NC(=O)C(F)(F)c2ccc(C)cc2)c1` (racemic) [Example 1075, 3-(4-(Cyclohexyl(isobutyl)amino)-3-(2,2-difluoro-2-(p-tolyl)acetamido)phenyl)pentanoic acid], the 50% inhibitory concentration (IC50) is over 50 nM.

Take `CCC(CC(=O)O)c1cc(F)c(N(CC(C)C)CC(C)C)c(NC(=O)Cc2ccc(F)cc2F)c1` (racemic) [Example 1082]: the 50% inhibitory concentration (IC50) is under 5 nM.

Regarding `CCC(CC(=O)O)c1cc(F)c(N(CC(C)C)CC(C)C)c(NC(=O)Cc2ccc(C)cc2F)c1` (racemic) [Example 1083], the half-inhibitory concentration (IC50) was under 5 nM.

As to `CCC(CC(=O)O)c1ccc(N(CC(C)C)C2CCCCC2)c(NC(=O)Cc2ccc(Cl)cc2F)c1` (racemic) [Example 1085], the IC50 was under 5 nM.

With `CCC(CC(=O)O)c1ccc(N(CC(C)C)C2CCCCC2)c(NC(=O)Cc2cc(F)ccc2F)c1` (racemic) [Example 1087], the half-maximal inhibitory concentration (IC50) is under 5 nM.

Take `CCC(CC(=O)O)c1ccc(N(CCC(C)C)C2CCCCC2)c(NC(=O)Cc2ccc(Cl)cc2F)c1` (racemic) [Example 1088]: the IC50 is under 50 nM.

`CCC(CC(=O)O)c1cc(NC(=O)Nc2ccc3c(c2)OCO3)c(N(CC(C)C)C2CCCCC2)cc1F` (racemic) [Example 1110, (±)-3-(5-(3-(Benzo[d][1,3]dioxol-5-yl)ureido)-4-(cyclohexyl(isobutyl)amino)-2-fluorophenyl)pentanoic acid]: the half-maximal inhibitory concentration (IC50) is under 5 nM.

Regarding `CCC(CC(=O)O)c1cc(NC(=O)Nc2cc(C)no2)c(N(CC(C)C)C2CCCCC2)cc1F` (racemic) [Example 1113, (±)-3-(4-(Cyclohexyl(isobutyl)amino)-2-fluoro-5-(3-(3-methylisoxazol-5-yl)ureido)phenyl)pentanoic acid], the concentration for half-maximal inhibition (IC50) was under 5 nM.

Consider `CCOc1ccc(NC(=O)Nc2cc(C(CC)CC(=O)O)c(F)cc2N(CC(C)C)C2CCCCC2)c(F)c1` (racemic) [Example 1116, (±)-3-(4-(Cyclohexyl(isobutyl)amino)-5-(3-(4-ethoxy-2-fluorophenyl)ureido)-2-fluorophenyl)pentanoic acid], for which the 50% inhibitory concentration (IC50) was under 5 nM.

In the case of `CCC(CC(=O)O)c1cc(NC(=O)Nc2ccc(C)cc2F)c(N(CC(C)C)C2CCCCC2)cc1F` (racemic) [Example 1119, (±)-3-(4-(Cyclohexyl(isobutyl)amino)-2-fluoro-5-(3-(2-fluoro-4-methylphenyl)ureido)phenyl)pentanoic acid], the IC50 is under 5 nM.

Take `CCC(CC(=O)O)c1cc(NC(=O)Nc2cncnc2)c(N(CC(C)C)C2CCCCC2)cc1F` (racemic) [Example 1122, (±)-3-(4-(cyclohexyl(isobutyl)amino)-2-fluoro-5-(3-(pyrimidin-5-yl)ureido)phenyl)pentanoic acid]: the IC50 is under 5 nM.

In the case of `CCC(CC(=O)O)c1cc(NC(=O)Nc2cnc(C)nc2)c(N(CC(C)C)C2CCCCC2)cc1F` (racemic) [Example 1125, (±)-3-(4-(Cyclohexyl(isobutyl)amino)-2-fluoro-5-(3-(2-methylpyrimidin-5-yl)ureido)phenyl)pentanoic acid], the IC50 was under 5 nM.

As for `CCC(CC(=O)O)c1cc(NC(=O)Nc2ccc(C)cc2)c(N(CC(C)C)CC(C)C)cc1F` (racemic) [Example 1128, (±)-3-(4-(Diisobutylamino)-2-fluoro-5-(3-(p-tolyl)ureido)phenyl)pentanoic acid], the IC50 was under 5 nM.

Regarding `CCOc1ccc(NC(=O)Nc2cc(C(CC)CC(=O)O)c(F)cc2N(CC(C)C)CC(C)C)cc1` (racemic) [Example 1131, (±)-3-(4-(Diisobutylamino)-5-(3-(4-ethoxyphenyl)ureido)-2-fluorophenyl)pentanoic acid], the concentration for half-maximal inhibition (IC50) is under 5 nM.

In the case of `CCC(CC(=O)O)c1cc(NC(=O)Nc2ccc3c(c2)OCO3)c(N(CC(C)C)CC(C)C)cc1F` (racemic) [Example 1134, (±)-3-(5-(3-(Benzo[d][1,3]dioxol-5-yl)ureido)-4-(diisobutylamino)-2-fluorophenyl)pentanoic acid], the IC50 is under 5 nM.

Turning to `CCOc1ccc(NC(=O)Nc2cc(C(CC)CC(=O)O)c(F)cc2N(CC(C)C)CC(C)C)c(F)c1` (racemic) [Example 1137, (±)-3-(4-(Diisobutylamino)-5-(3-(4-ethoxy-2-fluorophenyl)ureido)-2-fluorophenyl)pentanoic acid], the half-inhibitory concentration (IC50) is under 5 nM.

As to `CCC(CC(=O)O)c1cc(NC(=O)Nc2cnc(OC)nc2)c(N(CC(C)C)CC(C)C)cc1F` (racemic) [Example 1140, (±)-3-(4-(Diisobutylamino)-2-fluoro-5-(3-(2-methoxypyrimidin-5-yl)ureido)phenyl)pentanoic acid], the IC50 is under 5 nM.

As to `CCC(CC(=O)O)c1ccc(N2CCC[C@@H]2COC)c(NC(=O)Cc2ccc(C)cc2)c1` (mixture of isomers) [Example 1143, (±)-3-(4-((R)-2-(Methoxymethyl)pyrrolidin-1-yl)-3-(2-(p-tolyl)acetamido)phenyl)pentanoic acid], the IC50 is over 50 nM.

`CC(C)CN(c1ccc(C(CC(=O)O)C2CC2)cc1NC(=O)Nc1ccc(Cl)cc1F)C1CCOCC1` (racemic) [Example 1198, (+/−)-3-(3-(3-(4-Chloro-2-fluorophenyl)ureido)-4-(isobutyl(tetrahydro-2H-pyran-4-yl)amino)phenyl)-3-cyclopropylpropanoic acid]: the 50% inhibitory concentration (IC50) was under 5 nM.

Regarding `Cc1cc(NC(=O)Nc2cc(C(CC(=O)O)C3CC3)ccc2N(CC(C)C)C2CCOCC2)no1` (racemic) [Example 1200, (+/−)-3-Cyclopropyl-3-(4-(isobutyl(tetrahydro-2H-pyran-4-yl)amino)-3-(3-(5-methylisoxazol-3-yl)ureido)phenyl)propanoic acid], the concentration for half-maximal inhibition (IC50) is under 50 nM.

For `Cc1ccc(NC(=O)Nc2cc(C(CC(=O)O)C3CC3)ccc2N(CC(C)C)C2CCOCC2)cc1` (racemic) [Example 1202, (+/−)-3-Cyclopropyl-3-(4-(isobutyl(tetrahydro-2H-pyran-4-yl)amino)-3-(3-(p-tolyl)ureido)phenyl)propanoic acid], the IC50 was under 5 nM.

For `CCOc1ccc(NC(=O)Nc2cc(C(CC(=O)O)C3CC3)ccc2N(CC(C)C)C2CCOCC2)cc1` (racemic) [Example 1204, (+/−)-3-Cyclopropyl-3-(3-(3-(4-ethoxyphenyl)ureido)-4-(isobutyl(tetrahydro-2H-pyran-4-yl)amino)phenyl)propanoic acid], the IC50 was under 50 nM.

`CC(C)CN(c1ccc(C(CC(=O)O)C2CC2)cc1NC(=O)Nc1cncnc1)C1CCOCC1` (racemic) [Example 1206, (+/−)-3-Cyclopropyl-3-(4-(isobutyl(tetrahydro-2H-pyran-4-yl)amino)-3-(3-(pyrimidin-5-yl)ureido)phenyl)propanoic acid]: the IC50 is over 50 nM.

The values above are taken from patent US9790169B2, “IDO inhibitors” (BRISTOL-MYERS SQUIBB COMPANY, priority 2015, dated 2017).
